Reference: the NIST ThermoML archive (doi:10.1021/je700492k)

Test: excess molar enthalpy (molar enthalpy of mixing); xn = mol fraction of the nth substance listed
Conditions: Liquid, Flow calorimetry

CC(=O)CC(C)=O [2,4-pentanedione] + CC(C)O
excess molar enthalpy [kcal/mol]
Conditions	298.15 K	313.15 K	328.15 K
100 kPa, x1 = 0.0503	0.0985	0.101	0.103
100 kPa, x1 = 0.1501	0.235	0.247	0.262
100 kPa, x1 = 0.2502	0.321	0.344	0.365
100 kPa, x1 = 0.3499	0.374	0.403	0.43
100 kPa, x1 = 0.3997	0.39	0.421	0.448
100 kPa, x1 = 0.4498	0.401	0.432	0.459
100 kPa, x1 = 0.5001	0.405	0.436	0.462
100 kPa, x1 = 0.5507	0.403	0.432	0.457
100 kPa, x1 = 0.6	0.395	0.42	0.444
100 kPa, x1 = 0.6493	0.38	0.402	0.422
100 kPa, x1 = 0.7	0.356	0.376	0.393
100 kPa, x1 = 0.7999	0.285	0.296	0.305
100 kPa, x1 = 0.8503	0.234	0.238	0.246
100 kPa, x1 = 0.9504	0.0914	0.0934	0.0939
10000 kPa, x1 = 0.0502	0.0928	0.0986	0.103
10000 kPa, x1 = 0.1497	0.224	0.245	0.258
10000 kPa, x1 = 0.2496	0.312	0.341	0.362
10000 kPa, x1 = 0.3492	0.367	0.402	0.426
10000 kPa, x1 = 0.3989	0.384	0.42	0.445
10000 kPa, x1 = 0.449	0.395	0.431	0.456
10000 kPa, x1 = 0.4993	0.4	0.435	0.46
10000 kPa, x1 = 0.5498	0.399	0.431	0.455
10000 kPa, x1 = 0.5992	0.391	0.42	0.443
10000 kPa, x1 = 0.6486	0.376	0.401	0.422
10000 kPa, x1 = 0.6994	0.354	0.374	0.392
10000 kPa, x1 = 0.7993	0.284	0.294	0.304
10000 kPa, x1 = 0.8499	0.234	0.238	0.244
10000 kPa, x1 = 0.9503	0.0908	0.0922	0.0924

CC(=O)CC(C)=O [2,4-pentanedione] + CCO
excess molar enthalpy [kcal/mol]
Conditions	298.15 K	313.15 K	328.15 K
100 kPa, x1 = 0.0496	0.0592	0.0668	0.0752
100 kPa, x1 = 0.0992	0.109	0.124	0.142
100 kPa, x1 = 0.1496	0.156	0.175	0.2
100 kPa, x1 = 0.1992	0.193	0.219	0.25
100 kPa, x1 = 0.2491	0.225	0.255	0.29
100 kPa, x1 = 0.2988	0.251	0.283	0.324
100 kPa, x1 = 0.3482	0.273	0.309	0.353
100 kPa, x1 = 0.3988	0.29	0.327	0.373
100 kPa, x1 = 0.4484	0.301	0.34	0.387
100 kPa, x1 = 0.4988	0.309	0.348	0.395
100 kPa, x1 = 0.5476	0.312	0.349	0.396
100 kPa, x1 = 0.5991	0.309	0.345	0.39
100 kPa, x1 = 0.6484	0.3	0.334	0.377
100 kPa, x1 = 0.6976	0.286	0.316	0.355
100 kPa, x1 = 0.7494	0.264	0.29	0.324
100 kPa, x1 = 0.798	0.236	0.256	0.284
100 kPa, x1 = 0.849	0.196	0.211	0.233
100 kPa, x1 = 0.8992	0.146	0.154	0.169
100 kPa, x1 = 0.9485	0.0824	0.0848	0.0934
100 kPa, x1 = 0.9688	0.0518	0.0529	0.0585
10000 kPa, x1 = 0.0496	0.0575	0.0658	0.0749
10000 kPa, x1 = 0.0992	0.109	0.124	0.139
10000 kPa, x1 = 0.1496	0.153	0.174	0.198
10000 kPa, x1 = 0.1992	0.191	0.216	0.246
10000 kPa, x1 = 0.2491	0.223	0.253	0.287
10000 kPa, x1 = 0.2988	0.249	0.282	0.321
10000 kPa, x1 = 0.3482	0.27	0.306	0.348
10000 kPa, x1 = 0.3988	0.287	0.325	0.369
10000 kPa, x1 = 0.4484	0.299	0.338	0.382
10000 kPa, x1 = 0.4988	0.307	0.345	0.391
10000 kPa, x1 = 0.5476	0.309	0.347	0.391
10000 kPa, x1 = 0.5991	0.306	0.342	0.384
10000 kPa, x1 = 0.6484	0.298	0.332	0.371
10000 kPa, x1 = 0.6976	0.284	0.315	0.351
10000 kPa, x1 = 0.7494	0.262	0.289	0.317
10000 kPa, x1 = 0.798	0.234	0.256	0.276
10000 kPa, x1 = 0.849	0.195	0.211	0.224
10000 kPa, x1 = 0.8992	0.143	0.153	0.163
10000 kPa, x1 = 0.9485	0.0813	0.084	0.0911
10000 kPa, x1 = 0.9688	0.0514	0.0524	0.0568

CC(=O)CC(C)=O [2,4-pentanedione] + CCCO
excess molar enthalpy [kcal/mol]
Conditions	298.15 K	313.15 K	328.15 K
100 kPa, x1 = 0.0502	0.0721	0.0788	0.0869
100 kPa, x1 = 0.1502	0.184	0.205	0.224
100 kPa, x1 = 0.2502	0.259	0.289	0.321
100 kPa, x1 = 0.3504	0.311	0.347	0.385
100 kPa, x1 = 0.4001	0.327	0.364	0.404
100 kPa, x1 = 0.4502	0.338	0.374	0.416
100 kPa, x1 = 0.5006	0.344	0.38	0.421
100 kPa, x1 = 0.5501	0.344	0.378	0.419
100 kPa, x1 = 0.5997	0.339	0.371	0.41
100 kPa, x1 = 0.6495	0.327	0.355	0.392
100 kPa, x1 = 0.6994	0.309	0.333	0.366
100 kPa, x1 = 0.8006	0.248	0.261	0.286
100 kPa, x1 = 0.8504	0.202	0.211	0.233
100 kPa, x1 = 0.9493	0.0794	0.0835	0.0913
10000 kPa, x1 = 0.0502	0.0712	0.0775	0.0866
10000 kPa, x1 = 0.1504	0.181	0.201	0.222
10000 kPa, x1 = 0.2504	0.258	0.285	0.317
10000 kPa, x1 = 0.3507	0.309	0.343	0.379
10000 kPa, x1 = 0.4004	0.326	0.361	0.399
10000 kPa, x1 = 0.4505	0.338	0.371	0.413
10000 kPa, x1 = 0.501	0.344	0.375	0.418
10000 kPa, x1 = 0.5505	0.343	0.375	0.415
10000 kPa, x1 = 0.6001	0.339	0.367	0.405
10000 kPa, x1 = 0.6499	0.326	0.352	0.387
10000 kPa, x1 = 0.6997	0.308	0.329	0.36
10000 kPa, x1 = 0.8009	0.246	0.257	0.282
10000 kPa, x1 = 0.8506	0.201	0.207	0.228
10000 kPa, x1 = 0.9494	0.0791	0.0806	0.0894

CC(=O)CC(C)=O [2,4-pentanedione] + CO
excess molar enthalpy [kcal/mol]
Conditions	298.15 K	313.15 K	328.15 K
100 kPa, x1 = 0.0502	0.0494	0.0583	0.0658
100 kPa, x1 = 0.0995	0.0896	0.107	0.122
100 kPa, x1 = 0.1494	0.125	0.15	0.172
100 kPa, x1 = 0.1998	0.154	0.187	0.215
100 kPa, x1 = 0.2496	0.178	0.217	0.251
100 kPa, x1 = 0.3006	0.199	0.243	0.282
100 kPa, x1 = 0.3504	0.215	0.263	0.307
100 kPa, x1 = 0.3995	0.227	0.278	0.325
100 kPa, x1 = 0.4492	0.237	0.289	0.338
100 kPa, x1 = 0.499	0.242	0.295	0.346
100 kPa, x1 = 0.5509	0.244	0.296	0.348
100 kPa, x1 = 0.5989	0.241	0.293	0.342
100 kPa, x1 = 0.6509	0.233	0.284	0.33
100 kPa, x1 = 0.7006	0.221	0.269	0.312
100 kPa, x1 = 0.7507	0.204	0.248	0.286
100 kPa, x1 = 0.8006	0.179	0.219	0.25
100 kPa, x1 = 0.85	0.147	0.183	0.205
100 kPa, x1 = 0.8983	0.109	0.136	0.152
100 kPa, x1 = 0.95	0.057	0.0741	0.0828
10000 kPa, x1 = 0.0501	0.0479	0.058	0.0654
10000 kPa, x1 = 0.0994	0.0879	0.107	0.121
10000 kPa, x1 = 0.1493	0.123	0.15	0.171
10000 kPa, x1 = 0.1997	0.152	0.187	0.214
10000 kPa, x1 = 0.2494	0.176	0.217	0.25
10000 kPa, x1 = 0.3004	0.196	0.243	0.28
10000 kPa, x1 = 0.3502	0.213	0.263	0.304
10000 kPa, x1 = 0.3993	0.225	0.277	0.323
10000 kPa, x1 = 0.449	0.235	0.289	0.335
10000 kPa, x1 = 0.4988	0.24	0.294	0.343
10000 kPa, x1 = 0.5507	0.242	0.296	0.345
10000 kPa, x1 = 0.5987	0.24	0.292	0.34
10000 kPa, x1 = 0.6507	0.233	0.283	0.328
10000 kPa, x1 = 0.7005	0.221	0.269	0.308
10000 kPa, x1 = 0.7505	0.204	0.248	0.282
10000 kPa, x1 = 0.8004	0.179	0.219	0.246
10000 kPa, x1 = 0.8498	0.147	0.182	0.203
10000 kPa, x1 = 0.8982	0.108	0.135	0.151
10000 kPa, x1 = 0.9499	0.0569	0.0725	0.0819
